# From ChEMBL document CHEMBL4033708, “Synthesis and molecular docking study of some 5,6-dichloro-2-cyclopropyl-1H-benzimidazole derivatives bearing triazole, oxadiazole, and imine functionalities as potent inhibitors of urease” (Bioorg Med Chem Lett, 2017)
# Target: Urease (Canavalia ensiformis, UniProt P07374)
# Experiment: Inhibition of jack bean urease using urea as substrate pretreated for 15 mins followed by substrate addition by phenol red based spectrophotometric method
# Sequence of Urease (P07374 whole entry): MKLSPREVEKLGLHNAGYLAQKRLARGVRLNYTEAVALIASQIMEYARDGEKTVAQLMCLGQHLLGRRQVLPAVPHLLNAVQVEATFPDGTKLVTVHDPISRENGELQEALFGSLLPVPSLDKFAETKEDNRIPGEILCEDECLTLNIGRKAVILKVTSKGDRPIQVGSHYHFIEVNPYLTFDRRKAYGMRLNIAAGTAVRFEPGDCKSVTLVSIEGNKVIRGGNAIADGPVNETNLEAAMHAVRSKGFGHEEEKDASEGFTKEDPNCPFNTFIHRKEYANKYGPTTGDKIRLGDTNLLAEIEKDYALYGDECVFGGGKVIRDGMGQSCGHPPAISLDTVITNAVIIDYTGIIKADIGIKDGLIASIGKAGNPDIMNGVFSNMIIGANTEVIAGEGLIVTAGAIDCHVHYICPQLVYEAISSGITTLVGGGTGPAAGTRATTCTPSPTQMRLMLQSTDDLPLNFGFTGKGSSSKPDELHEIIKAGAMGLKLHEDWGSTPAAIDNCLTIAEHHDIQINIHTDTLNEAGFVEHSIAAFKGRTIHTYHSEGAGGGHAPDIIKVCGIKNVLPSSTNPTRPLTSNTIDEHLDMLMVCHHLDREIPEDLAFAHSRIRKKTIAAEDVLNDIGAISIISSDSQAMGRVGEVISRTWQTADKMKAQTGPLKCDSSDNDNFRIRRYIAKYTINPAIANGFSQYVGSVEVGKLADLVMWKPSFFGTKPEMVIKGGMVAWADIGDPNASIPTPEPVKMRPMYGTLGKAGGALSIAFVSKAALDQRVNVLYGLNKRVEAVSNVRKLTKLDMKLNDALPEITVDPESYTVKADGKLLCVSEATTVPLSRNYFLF
row,SMILES,IC50
1,NNC(=O)Cn1c(C2CC2)nc2cc(Cl)c(Cl)cc21,1.92 µM
2,O=C(Cn1c(C2CC2)nc2cc(Cl)c(Cl)cc21)N/N=C/c1ccccc1O,0.22 µM
3,Clc1cc2nc(C3CC3)[nH]c2cc1Cl,0.17 µM
4,O=C(Cn1c(C2CC2)nc2cc(Cl)c(Cl)cc21)N/N=C/c1cc(Br)ccc1O,0.14 µM
5,Sc1nnc(Cn2c(C3CC3)nc3cc(Cl)c(Cl)cc32)o1,1.34 µM
6,CN(C)c1ccc(/C=N/NC(=O)Cn2c(C3CC3)nc3cc(Cl)c(Cl)cc32)cc1,1.49 µM
7,CCn1c(S)nnc1Cn1c(C2CC2)nc2cc(Cl)c(Cl)cc21,0.38 µM
8,COC(=O)Cn1c(C2CC2)nc2cc(Cl)c(Cl)cc21,1.12 µM
9,CCNC(=S)NNC(=O)Cn1c(C2CC2)nc2cc(Cl)c(Cl)cc21,0.28 µM
10,O=C(Cn1c(C2CC2)nc2cc(Cl)c(Cl)cc21)N/N=C/c1cc(Cl)ccc1O,0.15 µM
11,O=C(Cn1c(C2CC2)nc2cc(Cl)c(Cl)cc21)N/N=C/c1ccc(F)c(Br)c1,0.06 µM
12,O=C(Cn1c(C2CC2)nc2cc(Cl)c(Cl)cc21)N/N=C/c1ccccc1,2.07 µM
13,CNC(=S)NNC(=O)Cn1c(C2CC2)nc2cc(Cl)c(Cl)cc21,0.05 to 0.06 µM
14,O=C(Cn1c(C2CC2)nc2cc(Cl)c(Cl)cc21)N/N=C/c1ccc(Cl)cc1,0.29 µM
15,Cn1c(S)nnc1Cn1c(C2CC2)nc2cc(Cl)c(Cl)cc21,0.17 µM
16,NC(N)=S [THIOUREA],0.56 µM
